Source: ChEMBL document CHEMBL1129812, “Oestrone 3-O-(N-acetyl)sulphamate, a potential molecular probe of the active site of oestrone sulphatase” (Bioorg Med Chem Lett, 1997)
Active and inactive are the calls of the source. The calls are words filed in the database; no cut-off is given here.

Tests used:
[1] = target: T1, Steryl-sulfatase (Homo sapiens) (UniProt P08842); test: Compound was tested for percent inhibitory activity against Estrone sulfatase 1 (E1-STS) at 100 uM in placental microsomes; settings: Placenta
T1 sequence (whole entry): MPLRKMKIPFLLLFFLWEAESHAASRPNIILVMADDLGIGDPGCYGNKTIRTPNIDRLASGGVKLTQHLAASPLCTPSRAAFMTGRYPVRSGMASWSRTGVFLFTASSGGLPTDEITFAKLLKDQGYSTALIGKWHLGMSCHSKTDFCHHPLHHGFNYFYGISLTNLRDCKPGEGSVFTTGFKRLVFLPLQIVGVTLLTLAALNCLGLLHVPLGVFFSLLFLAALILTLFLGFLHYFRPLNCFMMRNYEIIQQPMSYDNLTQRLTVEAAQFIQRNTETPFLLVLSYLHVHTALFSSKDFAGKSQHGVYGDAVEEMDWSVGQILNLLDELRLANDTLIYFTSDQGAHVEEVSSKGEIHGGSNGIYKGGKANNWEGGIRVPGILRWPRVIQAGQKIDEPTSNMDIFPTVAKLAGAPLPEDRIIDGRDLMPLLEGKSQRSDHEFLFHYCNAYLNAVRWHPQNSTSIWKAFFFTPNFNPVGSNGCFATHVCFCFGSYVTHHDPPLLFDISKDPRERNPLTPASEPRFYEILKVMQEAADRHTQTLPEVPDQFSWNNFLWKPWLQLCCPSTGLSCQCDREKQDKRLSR

[2] = target: T1, Steryl-sulfatase (Homo sapiens); test: Compound was tested for percent inhibitory activity against Estrone sulfatase 1 (E1-STS) at 20 uM in placental microsomes; settings: Placenta
[3] = target: T1, Steryl-sulfatase (Homo sapiens); test: Compound was tested for percent inhibitory activity against Estrone sulfatase 1 (E1-STS) at 50 uM in placental microsomes; settings: Placenta
[4] = target: T1, Steryl-sulfatase (Homo sapiens); test: In vitro percentage inhibition of Estrone sulfatase 1 (EI-STS) activity at concentration of 0.1 micro M in intact MCF-7 breast cancer cells; format: cell-based; settings: MCF7
[5] = target: T1, Steryl-sulfatase (Homo sapiens); test: Compound was tested for percent inhibitory activity against Estrone sulfatase 1 (E1-STS) at 0.10 uM in placental microsomes; settings: Placenta
[6] = target: T1, Steryl-sulfatase (Homo sapiens); test: Compound was tested for percent inhibitory activity against Estrone sulfatase 1 (E1-STS) at 0.20 uM in placental microsomes; settings: Placenta
[7] = target: T1, Steryl-sulfatase (Homo sapiens); test: Compound was tested for percent inhibitory activity against Estrone sulfatase 1 (E1-STS) at 10 uM in placental microsomes; settings: Placenta
[8] = target: T1, Steryl-sulfatase (Homo sapiens); test: Compound was tested for percent inhibitory activity against Estrone sulfatase 1 (E1-STS) at 25 uM in placental microsomes; settings: Placenta
[9] = target: T2, Steryl-sulfatase (Rattus norvegicus) (UniProt P15589); test: In vivo inhibition of rat liver Estrone sulfatase 1 (E1-STS) by oral or subcutaneous dose; Almost complete inhibition; format: organism-based
T2 sequence (whole entry): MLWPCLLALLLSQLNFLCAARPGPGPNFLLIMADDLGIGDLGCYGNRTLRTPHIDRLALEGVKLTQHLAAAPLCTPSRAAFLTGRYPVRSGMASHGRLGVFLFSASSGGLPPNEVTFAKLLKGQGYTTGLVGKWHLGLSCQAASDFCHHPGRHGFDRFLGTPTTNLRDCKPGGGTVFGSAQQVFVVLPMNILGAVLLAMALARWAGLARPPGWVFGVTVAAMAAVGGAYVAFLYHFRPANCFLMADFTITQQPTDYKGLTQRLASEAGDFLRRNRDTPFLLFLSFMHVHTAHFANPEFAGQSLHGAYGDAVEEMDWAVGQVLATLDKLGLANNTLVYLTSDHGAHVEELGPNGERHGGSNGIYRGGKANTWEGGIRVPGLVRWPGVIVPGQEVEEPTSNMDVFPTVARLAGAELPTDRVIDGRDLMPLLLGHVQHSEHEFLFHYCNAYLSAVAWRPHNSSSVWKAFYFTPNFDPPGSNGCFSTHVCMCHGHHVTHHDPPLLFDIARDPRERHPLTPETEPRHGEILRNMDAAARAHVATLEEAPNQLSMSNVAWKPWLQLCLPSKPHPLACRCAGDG

[10] = target: T1, Steryl-sulfatase (Homo sapiens); settings: Placenta; Microsomes; 0.1 uM
Description: Compound was tested for percent inhibitory activity against Estrone sulfatase 1 (E1-STS) at 0.1 uM in placental microsomes

[11] = target: T1, Steryl-sulfatase (Homo sapiens); settings: Placenta; Microsomes; 0.2 uM
Description: Compound was tested for percent inhibitory activity against Estrone sulfatase 1 (E1-STS) at 0.2 uM in placental microsomes

[12] = target: T1, Steryl-sulfatase (Homo sapiens); settings: Placenta; Microsomes; 1.0 uM
Description: Compound was tested for percent inhibitory activity against Estrone sulfatase 1 (E1-STS) at 1.0 uM in placental microsomes

inhibition [1]	inhibition [2]	inhibition [3]	inhibition [4]	Compound	further results
75%	43%	63%	–	C[C@]12CC[C@@H]3c4ccc(OS(=O)(=O)N(Cc5ccccc5)Cc5ccccc5)cc4CCC3[C@@H]1CCC2=O (single isomer, unassigned)	–
20%	13%	17%	–	C[C@]12CC[C@@H]3c4ccc(OS(=O)(=O)N5CCCCC5)cc4CCC3[C@@H]1CCC2=O (single isomer, unassigned)	–
–	–	–	80%	CNS(=O)(=O)Oc1ccc2c(c1)CCC1[C@@H]2CC[C@]2(C)C(=O)CC[C@@H]12 (single isomer, unassigned)	–
–	–	–	–	CC(=O)NS(=O)(=O)Oc1ccc2c(c1)CCC1[C@@H]2CC[C@]2(C)C(=O)CC[C@@H]12 (single isomer, unassigned)	inhibition [5]: 63%; inhibition [6]: 30%; inhibition [7]: 92%; inhibition [8]: > 99%
–	–	–	50%	CN(C)S(=O)(=O)Oc1ccc2c(c1)CCC1[C@@H]2CC[C@]2(C)C(=O)CC[C@@H]12 (single isomer, unassigned)	–
–	–	–	–	C[C@]12CC[C@@H]3c4ccc(OS(N)(=O)=O)cc4CCC3[C@@H]1CCC2=O (single isomer, unassigned)	inhibition [9]: Active; inhibition [10]: 50%; inhibition [11]: 82%; inhibition [12]: 95%
